Assays:
[1] = tested on: anaesthetized rats; experiment: Haemodynamic profile in anaesthetized rats; assay type: in vivo; parameters: Dhr20 = i.v. dose which reduces heart rate by ca. 20%: unit not given here; conditions: for %effect of Dhr20 on BP (mean arterial blood pressure) / %effect of Dhr20 on LVP (systolic left ventricular pressure) / %effect of Dhr20 on dp/dtmax: at Dhr20, i.v.; for %effect of Dhr20 on BP (mean arterial blood pressure) / %effect of Dhr20 on LVP (systolic left ventricular pressure) / %effect of Dhr20 on dp/dtmax / Dhr20 = i.v. dose which reduces heart rate by ca. 20%: rat; for %effect of Dhr20 on dp/dtmax: left ventricular dp/dt max
Text: The effect of compounds of the invention on heart rate, systolic left ventricular pressure, left ventricular dp/dt max and mean arterial blood pressure was investigated so as to obtain information on the anti-anginal potential of these compounds, by reducing the oxygen demand of the ischaemic heart.

[2] = tested on: guinea-pig papillary muscle; experiment: Ca++-antagonistic activity, calcium dependent action potentials in papillary muscle in vitro; assay type: cell-based; conditions: 1-3 x 10^-6M; 34+ 1°C; krebs medium containing 26 nM K+ and 0.5 nM BaCl2
Experimental: In guinea-pig papillary muscle (34+ 1°C) in vitro, the Compound (El) (1-3 x 10-^6M) depressed the maximal rate of rise (Vmax) of calcium dependent action potentials evoked in krebs medium containing […] K^+ and […], BaC12. These action potentials were recorded using conventional intracellular techniques.

[3] = tested on: conscious rabbits; experiment: Antiarrhythmic activity, suprathreshold cardiac electric stimulation in conscious rabbits; assay type: in vivo
Experimental: Compound (El) infused at 2.5mg/min in the ear vein of conscious rabbits inhibited the arrhythmogenic effect of suprathreshold cardiac electric stimulation. The therapeutic index, i.e. the ratio between the dose of compound required to produce A-V-block (8 mg/kg) and that dose which gave an antiarrhythmic effect (0.9mg/kg) was 8.9.

[4] = tested on: anaesthetized rats; experiment: Antianginal activity, vasopressin-induced ST-segment elevation in the ECG, i.v.; assay type: in vivo; conditions: Rattus norvegicus, iv, reduction of ST-segment elevation after i.v. 1 I.U./kg vasopressin, read-out: minimum effective i.v. antianginal dose
[5] = tested on: anaesthetized rats; experiment: Vasopressin test in anaesthetized rats (coronary spasm), intraduodenal; assay type: in vivo; conditions: 32mg/kg i.d.
Experimental: Vasopressin (Lysopressin: 1 I.U./kg) was administered intravenously in order to provoke coronary spasm. Compound (El) was active against coronary spasm at a dose of 32mg/kg i.d. with a duration of action greater than 2 hours. The ability of test compounds to reduce coronary spasm is taken as a measure of their anti-anginal potential in spasm - induced angina pectoris. (Ref. Drug.Res. 33(11), 8,1117-1121 (1983)).

| SMILES | %effect of Dhr20 on BP (mean arterial blood pressure) [1] [%] | %effect of Dhr20 on LVP (systolic left ventricular pressure) [1] [%] | %effect of Dhr20 on dp/dtmax [1] [%] | i.v. duration of action on heart rate (rat) [1] [min] | Dhr20 = i.v. dose which reduces heart rate by ca. 20% [1] | maximal rate of rise (Vmax) of calcium dependent action potentials [2] | minimal effective dose ([3]; Oryctolagus cuniculus, iv, infusion in the ear vein, conscious rabbits, read-out: dose which gave an antiarrhythmic effect) [mg/kg] | arrhythmogenic effect of suprathreshold cardiac electric stimulation ([3]; infused at 2.5mg/min in the ear vein, conscious rabbits) | dose of compound required to produce A-V-block ([3]; infusion in the ear vein, conscious rabbits) [mg/kg] | therapeutic index ([3]; ratio of A-V-block dose to antiarrhythmic dose) | minimal effective dose [4] [mg/kg] | duration of action ([5]; against coronary spasm) | activity against coronary spasm ([5]; vasopressin (Lysopressin) 1 I.U./kg i.v.) |
| --- | --- | --- | --- | --- | --- | --- | --- | --- | --- | --- | --- | --- | --- |
| CCC(CNC(=O)c1cccnc1)N(C)CCN(C)C(CC)CNC(=O)c1cccnc1 (stereo not drawn) [Compound E30, N,N'-dimethyl-N,N'-di[1-nicotinoylamido-butyl-(2)]-ethylene-diamine] | -14 | -9 | -15 | 10 | 12.8 | – | – | – | – | – | – | – | – |
| CCC(CNC(=O)c1cc(OC)c(OC)c(OC)c1)N1CCC(N(C)C(CC)CNC(=O)c2cc(OC)c(OC)c(OC)c2)CC1 (stereo not drawn) [Compound E38, 1-[1-(3,4,5-trimethoxybenzamido-butyl-(2))]-4-N-methyl-N-[1-(3,4,5-trimethoxybenzamido-butyl-(2))]-amino-piperidine] | -6 | -7 | -32 | 10 to 15 | 12.8 | – | – | – | – | – | – | – | – |
| CCC(CNC(=O)c1ccc(OC)c(OC)c1)N(C)CCN(C)C(CC)CNC(=O)c1ccc(OC)c(OC)c1 (stereo not drawn) [Compound E11] | -2 | -4 | -7 | 5 to 10 | 3.2 | – | – | – | – | – | – | – | – |
| CC[C@@H](CNC(=O)c1cc(OC)c(OC)c(OC)c1)N(C)CCN(C)[C@@H](CC)CNC(=O)c1cc(OC)c(OC)c(OC)c1 [Compound E8] | -30 | -29 | -36 | – | 3.2 | – | – | – | – | – | – | – | – |
| CCC(CNC(=O)c1ccncc1)N(C)CCN(C)C(CC)CNC(=O)c1ccncc1 (stereo not drawn) [Compound E29] | -10 | -6 | -2 | 10 | 12.8 | – | – | – | – | – | – | – | – |
| CCC(CNC(=O)c1cc(OC)c(OC)c(OC)c1)N(C)CCN(C)C(CC)CNC(=O)c1cc(OC)c(OC)c(OC)c1 (stereo not drawn) [Compound E1, N,N'-dimethyl-N,N'-di-[1-(3,4,5-trimethoxybenzamido)-butyl-(2)]-ethylenediamine] | – | -17 | -24 | 5 | 3.2 | depressed | 0.9 | inhibited | 8 | 8.9 | 0.2 | greater than 2 hours | active |
| CCC(CNC(=O)c1cc(Cl)cc(Cl)c1)N(C)CCN(C)C(CC)CNC(=O)c1cc(Cl)cc(Cl)c1 (stereo not drawn) [Compound E2, N,N'-dimethyl-N,N'-di-(2-[1-(3,5-dichlorobenzamido)] -butyl)-ethylene-diamine] | -7 | – | -21 | 15 | 3.2 | – | – | – | – | – | – | – | – |
| CCC(CNC(=O)c1ccc2c(c1)OCO2)N(C)CCN(C)C(CC)CNC(=O)c1ccc2c(c1)OCO2 (stereo not drawn) [Compound E12] | -4 | -8 | -11 | 10 to 15 | 1.6 | – | – | – | – | – | – | – | – |
| COc1cc(C(=O)NCC2CCCCN2CCN2CCCCC2CNC(=O)c2cc(OC)c(OC)c(OC)c2)cc(OC)c1OC (stereo not drawn) [Compound E16] | -17 | -17.3 | -32 | 10 | 6.4 | – | – | – | – | – | – | – | – |
| CCC(CNC(=O)c1cccc(Cl)c1)N(C)CCN(C)C(CC)CNC(=O)c1cccc(Cl)c1 (stereo not drawn) [Compound E3] | -16 | -2 | -15 | 10 | 1.6 | – | – | – | – | – | – | – | – |
| CCC(CNC(=O)c1ccc(C#N)cc1)N(C)CCN(C)C(CC)CNC(=O)c1ccc(C#N)cc1 (stereo not drawn) [Compound E7] | -6 | -5 | -15 | 5 to 10 | 3.2 | – | – | – | – | – | – | – | – |
